Experimental data reported in a compilation of properties of binary mixtures (doi:10.1021/acs.jced.5b00753).

Test: xn = mol fraction of the nth substance listed
Conditions: 101 kPa

CN(C)C=O + CC[n+]1ccn(C)c1.F[B-](F)(F)F
x1 = 1
Conditions	viscosity [mPa·s]
303.15 K	0.744
323.15 K	0.6

CC[n+]1ccn(C)c1.F[B-](F)(F)F + CS(C)=O
viscosity [mPa·s]
Conditions	x2 = 0	x2 = 0.1001	x2 = 0.2007	x2 = 0.2996	x2 = 0.4	x2 = 0.4996	x2 = 0.6002	x2 = 0.7002	x2 = 0.7996	x2 = 0.9002
303.15 K	28	24.39	–	–	14.08	11.13	–	6.249	–	2.928
313.15 K	20.41	17.83	15.25	–	10.59	8.46	6.575	4.936	3.515	2.385
323.15 K	15.35	13.54	11.62	9.91	–	6.667	5.296	3.971	2.893	–
333.15 K	12.08	10.64	9.18	7.87	6.571	5.382	4.335	3.294	2.438	–

CC[n+]1ccn(C)c1.F[B-](F)(F)F + CN(C)C=O
viscosity [mPa·s]
Conditions	x2 = 0	x2 = 0.1016	x2 = 0.2016	x2 = 0.2994	x2 = 0.3987	x2 = 0.5005	x2 = 0.6004	x2 = 0.7	x2 = 0.7997	x2 = 0.8999
303.15 K	28	21.61	–	12.55	9.33	6.703	4.72	3.214	2.114	1.305
313.15 K	–	16.03	12.53	9.74	–	–	3.867	2.689	–	1.144
323.15 K	–	12.29	9.8	–	5.935	–	–	2.293	1.567	–
333.15 K	12.08	9.72	7.83	6.291	4.93	3.744	2.775	1.993	1.387	0.899

CC(=O)N(C)C + CC[n+]1ccn(C)c1.F[B-](F)(F)F
x1 = 1
Conditions	viscosity [mPa·s]
303.15 K	0.862
313.15 K	0.758
323.15 K	0.673
333.15 K	0.602

CC[n+]1ccn(C)c1.F[B-](F)(F)F + CC(=O)N(C)C
viscosity [mPa·s]
Conditions	x2 = 0	x2 = 0.0996	x2 = 0.1998	x2 = 0.2995	x2 = 0.3989	x2 = 0.5005	x2 = 0.6	x2 = 0.6996	x2 = 0.8001	x2 = 0.8994
303.15 K	–	22.75	–	13.99	10.62	7.83	–	–	–	1.549
313.15 K	20.41	16.86	13.59	10.65	8.23	–	–	3.147	2.092	1.328
323.15 K	–	12.8	10.45	–	6.555	4.982	3.69	2.638	1.79	1.154
333.15 K	12.08	10.09	8.31	–	–	4.122	3.115	2.252	1.563	1.029

CS(C)=O + CC[n+]1ccn(C)c1.F[B-](F)(F)F
x1 = 1
Conditions	viscosity [mPa·s]
303.15 K	1.784
313.15 K	1.498
323.15 K	1.27
333.15 K	1.095
